Assay results taken from article PMC9884426, “A phase 1 clinical trial of the repurposable acetyllysine mimetic, n-methyl-2-pyrrolidone (NMP), in relapsed or refractory multiple myeloma” (Clinical Epigenetics, 2023).
Where two headings read alike, the source gives them in different places.

Experiment: Plasma pharmacokinetics of oral NMP by LCMSMS
Format: in vivo, human
Conditions: for AUC / Cmax / half-life / Tmax: human, po
Protocol: Blood samples were taken from patients before NMP and at one, two, four, eight and 24 h post dose. Plasma samples (20 μl) were prepared by adding five volumes of methanol containing deuterated internal standard. The samples were vortexed then centrifuged, and the supernatant was transferred to a vial and injected onto the LCMSMS. The LCMSMS system consisted of a Shimadzu UHPLC with a SCIEX 6500QTrap, a KinetexC18 (3 × 50 mm, 2.6 μm) column and using a gradient of 0.1% formic acid and acetonitrile. The initial conditions were 0.5 ml/min and 2% acetonitrile; this was held for 1 min then increased to 20% acetonitrile at 2 min then increased to 70% acetonitrile and held for 0.5 min. Equilibration time was 0.5 min. MRMs for NMP were 100 → 58, 100 → 69, 100 → 41 and for the internal standard d9NMP 109 → 62, […]. PK analysis was performed using Pkanalix (version 2021R1. Antony, France: Lixoft SAS, 2021).

[1] = all dose levels 25-800 mg oral, N = 28 profiles, plasma

CN1CCCC1=O [NMP, N-methyl-2-pyrrolidone]
Maximum plasma concentration (Cmax), highest achieved (800 mg dose, oral, one patient): 16700 ng/mL | CL/F, Overall Average [1]: 19.25 L⋅h⁻¹ | Half-life, Overall Average [1]: ~ 1.5 h | V/F, Overall Average [1]: 39.49 L | Tmax, Overall Average (all dose levels 25-800 mg oral, N = 29 profiles, plasma): 33 min | single NMP dose predicted to be required to attain BET-inhibitory peak plasma concentrations (e.g. > 1 mM peak plasma, based on NMP's PK): more than 4.5 g | AUC (plasma, 25 mg, oral 25 mg, patient RMH-01 occasion 6, plasma, read-out: AUC): 1500 ng·h/mL | Cmax (plasma, 25 mg, oral 25 mg, patient RMH-01 occasion 6, plasma, read-out: Cmax): 930 ng/mL | half-life (plasma, 25 mg, oral 25 mg, patient RMH-01 occasion 6, plasma, read-out: Half-life (converted)): 52.2 min | Tmax (plasma, 25 mg, oral 25 mg, patient RMH-01 occasion 6, plasma, read-out: Tmax): 30 min | AUC (plasma, 50 mg, oral 50 mg, average of N = 5 profiles, plasma, read-out: AUC, Average): 2170 ng·h/mL | Cmax (plasma, 50 mg, oral 50 mg, average of N = 5 profiles, plasma, read-out: Cmax, Average): 1260 ng/mL | half-life (plasma, 50 mg, oral 50 mg, average of N = 5 profiles, plasma, read-out: Half-life, Average (converted)): 64.8 min | Tmax (plasma, 50 mg, oral 50 mg, average of N = 5 profiles, plasma, read-out: Tmax, Average): 30 min | AUC (plasma, 50 mg, oral 50 mg, individual profiles, patient RMH-01 occasions 1-5, plasma, read-out: AUC): 2830 ng·h/mL | Cmax (plasma, 50 mg, oral 50 mg, individual profiles, patient RMH-01 occasions 1-5, plasma, read-out: Cmax): 1720 ng/mL | half-life (plasma, 50 mg, oral 50 mg, individual profiles, patient RMH-01 occasions 1-5, plasma, read-out: Half-life (converted)): 72.6 min | Tmax (plasma, 50 mg, oral 50 mg, individual profiles, patient RMH-01 occasions 1-5, plasma, read-out: Tmax): 30 min | AUC (plasma, 100 mg, oral 100 mg, average of N = 5 profiles, plasma, read-out: AUC, Average): 7130 ng·h/mL | Cmax (plasma, 100 mg, oral 100 mg, average of N = 5 profiles, plasma, read-out: Cmax, Average): 2570 ng/mL | half-life (plasma, 100 mg, oral 100 mg, average of N = 5 profiles, plasma, read-out: Half-life, Average (converted)): 110 min | Tmax (plasma, 100 mg, oral 100 mg, average of N = 5 profiles, plasma, read-out: Tmax, Average): 30 min | AUC (plasma, 100 mg, oral 100 mg, individual profiles, patient RMH-02 occasions 1-5, plasma, read-out: AUC): 6970 ng·h/mL | Cmax (plasma, 100 mg, oral 100 mg, individual profiles, patient RMH-02 occasions 1-5, plasma, read-out: Cmax): 2730 ng/mL | half-life (plasma, 100 mg, oral 100 mg, individual profiles, patient RMH-02 occasions 1-5, plasma, read-out: Half-life (converted)): 101 min | Tmax (plasma, 100 mg, oral 100 mg, individual profiles, patient RMH-02 occasions 1-5, plasma, read-out: Tmax): 30 min | half-life (plasma, 200 mg, oral 200 mg, average of N = 8 profiles, plasma, read-out: Half-life, Average (converted)): 88.2 min | AUC (plasma, 200 mg, oral 200 mg, average of N = 9 profiles, plasma, read-out: AUC, Average): 9510 ng·h/mL | Cmax (plasma, 200 mg, oral 200 mg, average of N = 9 profiles, plasma, read-out: Cmax, Average): 4050 ng/mL | Tmax (plasma, 200 mg, oral 200 mg, average of N = 9 profiles, plasma, read-out: Tmax, Average): 33.6 min | half-life (plasma, 200 mg, oral 200 mg, individual profiles (PMC-03, MON-04, MON-06, MON-07, PMC-08), plasma, read-out: Half-life (converted)): 84 min | Tmax (plasma, 200 mg, oral 200 mg, individual profiles (PMC-03, MON-04, PMC-05, MON-06, MON-07, PMC-08), plasma, read-out: Tmax): 30 min | AUC (plasma, 300 mg, oral 300 mg, average of N = 3 profiles, plasma, read-out: AUC, Average): 22200 ng·h/mL | Cmax (plasma, 300 mg, oral 300 mg, average of N = 3 profiles, plasma, read-out: Cmax, Average): 8060 ng/mL | half-life (plasma, 300 mg, oral 300 mg, average of N = 3 profiles, plasma, read-out: Half-life, Average (converted)): 96 min | Tmax (plasma, 300 mg, oral 300 mg, average of N = 3 profiles, plasma, read-out: Tmax, Average): 40.2 min | Cmax (plasma, 300 mg, oral 300 mg, individual profiles (PMC-09, MON-10, MON-11), plasma, read-out: Cmax): 10500 ng/mL | half-life (plasma, 300 mg, oral 300 mg, individual profiles (PMC-09, MON-10, MON-11), plasma, read-out: Half-life (converted)): 99.6 min | Tmax (plasma, 300 mg, oral 300 mg, individual profiles (PMC-09, MON-10, MON-11), plasma, read-out: Tmax): 30 min | AUC (plasma, 400 mg, oral 400 mg, average of N = 2 profiles, plasma, read-out: AUC, Average): 22200 ng·h/mL | Cmax (plasma, 400 mg, oral 400 mg, average of N = 2 profiles, plasma, read-out: Cmax, Average): 8310 ng/mL | half-life (plasma, 400 mg, oral 400 mg, average of N = 2 profiles, plasma, read-out: Half-life, Average (converted)): 94.2 min | Tmax (plasma, 400 mg, oral 400 mg, average of N = 2 profiles, plasma, read-out: Tmax, Average): 30 min | AUC (plasma, 400 mg, oral 400 mg, individual profiles (MON-11 occasion 2, MON-12), plasma, read-out: AUC): 28500 ng·h/mL | Cmax (plasma, 400 mg, oral 400 mg, individual profiles (MON-11 occasion 2, MON-12), plasma, read-out: Cmax): 8990 ng/mL | half-life (plasma, 400 mg, oral 400 mg, individual profiles (MON-11 occasion 2, MON-12), plasma, read-out: Half-life (converted)): 107 min | Tmax (plasma, 400 mg, oral 400 mg, individual profiles (MON-11 occasion 2, MON-12), plasma, read-out: Tmax): 30 min | AUC (plasma, 500 mg, oral 500 mg, patient MON-11 occasion 3, plasma, read-out: AUC): 40600 ng·h/mL | Cmax (plasma, 500 mg, oral 500 mg, patient MON-11 occasion 3, plasma, read-out: Cmax): 12700 ng/mL | half-life (plasma, 500 mg, oral 500 mg, patient MON-11 occasion 3, plasma, read-out: Half-life (converted)): 119 min | Tmax (plasma, 500 mg, oral 500 mg, patient MON-11 occasion 3, plasma, read-out: Tmax): 30 min | AUC (plasma, 600 mg, oral 600 mg, patient MON-11 occasion 4, plasma, read-out: AUC): 56700 ng·h/mL | Cmax (plasma, 600 mg, oral 600 mg, patient MON-11 occasion 4, plasma, read-out: Cmax): 14400 ng/mL | half-life (plasma, 600 mg, oral 600 mg, patient MON-11 occasion 4, plasma, read-out: Half-life (converted)): 130 min | Tmax (plasma, 600 mg, oral 600 mg, patient MON-11 occasion 4, plasma, read-out: Tmax): 30 min | AUC (plasma, 700 mg, oral 700 mg, patient MON-11 occasion 5, plasma, read-out: AUC): 57600 ng·h/mL | Cmax (plasma, 700 mg, oral 700 mg, patient MON-11 occasion 5, plasma, read-out: Cmax): 12400 ng/mL
